Measured values as given in patent publication US9289467B2, “Compositions and methods for treating bone conditions” (Case Western Reserve University, priority 2011, dated 2016).
Entries after “also recorded” stand apart in the source; their conditions may differ.

How the values were obtained:
Assay type in all cases: cell-based
WT BM cells = test: OC differentiation of WT mouse BM cells stimulated with 1.25(OH)2 vitamin D3, TRAP staining; settings: for TRAP-positive multinuclear cells / TRAP-positive mononuclear cells / numbers of resultant OC with exogenous C3a/C5a, result in words: WT BM cells; for TRAP-positive multinuclear cells / TRAP-positive mononuclear cells: 1×10^−8M 1.25(OH)2 vitamin D3, 50 μM of each antagonist, day 12; for TRAP-positive multinuclear cells: placebo 42±9; for TRAP-positive mononuclear cells: placebo 217±25; for OC generation / differentiation, result in words: WT mouse BM cells, antagonist during 1.25(OH)2 vitamin D3 stimulation, vs placebo; for numbers of resultant OC with exogenous C3a/C5a, result in words: 50 ng/mL C3a or C5a or both added daily
Protocol: (§1) Human BM cells from healthy donors were obtained from the Hematopoietic Stem Cell Core Facility of Case Western Reserve University. Murine BM cells were isolated from 8- to 12-week-old female mouse femurs and tibias, washed, and collected in 15-mL tubes in α-modified Eagle medium (MEM) containing 10% fetal bovine serum (FBS) that was heat-inactivated to eliminate complement activity. For OC differentiation, 2×10^6 BM cells were cultured in complete α-MEM medium in wells of a 24-well plate together with 1×10^−8M 1.25(OH)2 vitamin D3 (Cayman Chemical) as described before. Cultures were fed every 3 days with fresh media. For IL-6 or C5aR antagonist (C5aRA)/C3aR antagonist (C3aRA) supplementation experiments, 20 ng/mL IL-6 (R&D Systems) or 50 μM of each antagonist or both (C5aRA: JPE-1375; custom synthesized by Anaspec; C3aRA:SB290157; purchased from BMD Chemicals) were included in the medium. For C3a and/or C5a supplementation experiments, 50 ng/mL purified C3a (BD Biosciences) or C5a (Cell Sciences) or both were added daily into WT and C3^−/− BM-cell cultures. To neutralize IL-6 in samples treated with C3a/C5a, 10 ng/mL rat anti-IL-6 mAb (Clone 6B4 IGH 54; eBioscience) were added every 2 days. At day 12, differentiated OCs were identified by conventional tartrate-resistant acid phosphatase (TRAP) staining using a kit (Sigma-Aldrich) and following the protocol provided by the manufacturer. Total numbers of TRAP-positive cells in each well were counted under a microscope, and cells containing 3 or more nuclei were categorized as multinucleated.

human BM cells = test: OC differentiation of human BM cells stimulated with 1.25(OH)2 vitamin D3, TRAP staining; settings: 1.25(OH)2 vitamin D3, with antagonists vs placebo
Protocol: as §1
To determine whether the above-observed results would apply to humans, we subjected normal human BM cells to OC differentiation conditions with and without the C3aR/C5aR antagonists, then analyzed the conditioned media for the presence of factor B, factor D, and C5, and quantified the resultant TRAP^+ cells.

C3^−/− BM cells = test: OC differentiation of C3^−/− mouse BM cells stimulated with 1.25(OH)2 vitamin D3, TRAP staining; settings: for numbers of resultant OC with exogenous C3a/C5a, result in words: 50 ng/mL C3a or C5a or both added daily
Protocol: as §1

Molecule	TRAP-positive multinuclear cells (WT BM cells)	TRAP-positive mononuclear cells (WT BM cells)	OC generation / differentiation, result in words (WT BM cells)	OC differentiation (TRAP^+ cells), result in words (human BM cells)	numbers of resultant OC with exogenous C3a/C5a, result in words (WT BM cells)	numbers of resultant OC with exogenous C3a/C5a, result in words (C3^−/− BM cells; C3^−/− BM cells)	further results
NC(N)=NCCC[C@H](NC(=O)COCC(c1ccccc1)c1ccccc1)C(=O)O [C3aRA, SB290157]	29±7 cells	156±23 cells	significantly inhibited OC generation	significant decrease in both mononuclear and multi-nuclear TRAP^+ cells	–	–	–
C3a: purified C3a (BD Biosciences), complement activation product, 50 ng/mL	–	–	–	–	increased the numbers of resultant OC	increased the numbers of resultant OC	–
JPE-1375 [C5aRA]	34±8 cells	176±29 cells	did not reach a statistical significance	decrease in both cell types, but only the mono-nuclear cells were at the level of statistical significance	–	–	OC generation / differentiation, result in words (WT BM cells; listed as JPE-1375): inhibits mouse and human OC differentiation in vitro; OC differentiation (TRAP^+ cells), result in words (human BM cells; listed as JPE-1375): inhibits mouse and human OC differentiation in vitro
C5a: purified C5a (Cell Sciences), complement activation product, 50 ng/mL (protein, UniProt P06684 679-755, looked up, C5a anaphylatoxin) C5a anaphylatoxin: NLHLLRQKIEEQAAKYKHSVPKKCCYDGARVNFYETCEERVARVTIGPLCIRAFNECCTIANKIRKESPHKPVQLGR	–	–	–	–	did not appear to have a significant effect	did not appear to have a significant effect	–
IL-6: exogenous IL-6 (R&D Systems), 20 ng/mL supplemented into BM cell cultures (protein, UniProt P08505 25-211, looked up) Interleukin-6: FPTSQVRRGDFTEDTTPNRPVYTTSQVGGLITHVLWEIVEMRKELCNGNSDCMNNDDALAENNLKLPEIQRNDGCYQTGYNQEICLLKISSGLLEYHSYLEYMKNNLKDNKKDKARVLQRDTETLIHIFNQEVKDLHKIVLPTPISNALLTDKLESQKEWLRTKTIQFILKSLEEFLKVTLRSTRQT	–	–	–	–	–	–	OC differentiation with IL-6 supplementation, result in words (C3^−/− BM cells; C3^−/− BM cell cultures supplemented with IL-6): rescued the C3^−/− phenotype; also recorded: restored their OC differentiation capabilities; TRAP-positive cells (multinucleated) (C3^−/− BM cells; C3^−/− BM cells, 20 ng/mL IL-6 daily, 12 days, without IL-6 31±4): 52±9; TRAP-positive cells (mononuclear) (C3^−/− BM cells; C3^−/− BM cells, 20 ng/mL IL-6 daily, 12 days, without IL-6 108±17): 249±39; Trap^+ Multi-Nucl. Cells/Well (C3^−/− BM cells; Table 2, C3^−/− BM cells + IL-6, C3^−/− without IL-6 31 ± 4): 52 ± 9 Cells/Well; Trap^+ Mono-Nucl. Cells/Well (C3^−/− BM cells; Table 2, C3^−/− BM cells + IL-6, C3^−/− without IL-6 108 ± 17): 249 ± 39 Cells/Well
